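Cells were grown in 96-well plates and exposed to each compound for 48 hours at five concentrations; endpoints were interpolated linearly between bracketing concentrations, or set to the highest concentration if not reached. GI50: concentration for 50% inhibition of growth. Definition used: TGI = concentration required for complete inhibition of growth.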
Experiments:
Assay in all cases: inhibition of tumour cell growth, NCI panel, 48 h
EKVX NSCLC = tested on: EKVX NSCLC
SNB-19 CNS = tested on: SNB-19 CNS
SK-MEL-2 melanoma = tested on: SK-MEL-2 melanoma
NCI-H460 lung = tested on: NCI-H460 lung
OVCAR-4 ovarian = tested on: OVCAR-4 ovarian
TK-10 renal = tested on: TK-10 renal
SK-OV-3 ovarian = tested on: SK-OV-3 ovarian
786-0 renal = tested on: 786-0 renal
HCT-116 colon = tested on: HCT-116 colon
IGROV1 ovarian = tested on: IGROV1 ovarian

Compound	GI50 (EKVX NSCLC) [µM]	TGI (EKVX NSCLC) [µM]	GI50 (SNB-19 CNS) [µM]	TGI (SNB-19 CNS) [µM]	GI50 (SK-MEL-2 melanoma) [µM]	TGI (SK-MEL-2 melanoma) [µM]	GI50 (NCI-H460 lung) [µM]	TGI (NCI-H460 lung) [µM]	GI50 (OVCAR-4 ovarian) [µM]	TGI (OVCAR-4 ovarian) [µM]	GI50 (TK-10 renal) [µM]	TGI (TK-10 renal) [µM]	GI50 (SK-OV-3 ovarian) [µM]	TGI (SK-OV-3 ovarian) [µM]	GI50 (786-0 renal) [µM]	TGI (786-0 renal) [µM]	GI50 (HCT-116 colon) [µM]	TGI (HCT-116 colon) [µM]	GI50 (IGROV1 ovarian) [µM]	TGI (IGROV1 ovarian) [µM]
Oc1ccc(Cc2ccc(O)c3ncccc23)c2cccnc12	0.344	> 100	0.0361	29.6	0.228	0.681	0.0323	> 100	0.371	> 100	0.238	0.996	0.214	0.653	0.193	> 100	0.0359	> 100	0.0776	> 100
C[C@]12CCC3[C@@H](C[C@@H]4SC(Nc5ccccc5)=N[C@@]45CC(=O)CC[C@]35C)[C@@H]1CCC2=O (some centres not stated)	38.8	> 100	12.9	> 100	17.1	60.8	4.65	27.9	18.9	> 100	7.46	54.8	34	> 100	3.02	13.1	1.91	4.16	8.21	> 100
O=C1C(Cl)C(c2cccc(O)c2)N1n1cnc2ccccc2c1=O (configuration not stated)		> 100		> 100		> 100		> 100		> 100		> 100		> 100		> 100		> 100		> 100
O=Cc1c(-c2cc(O)ccc2O)nc2sccn12	28.4	93.1	42.6	> 100	20.1	55.9	18	40.8	14.5	32.9	11	23.6	78.5	> 100	3.83	15.9	14	27.3	9.04	29.5
CC(=O)O[C@H]1C(=O)[C@@]2(C)C(C(OC(=O)c3ccccc3)[C@]3(O)CC(OC(=O)[C@H](OC(=O)CCC(=O)O)C(NC(=O)c4ccccc4)c4ccccc4)C(C)=C1C3(C)C)C1(OC(C)=O)COC1C[C@@H]2OC(=O)CCC(=O)O (some centres not stated)		> 100		> 100						> 100		> 100		> 100		> 100		> 100		> 100
CCN1C2=NC(=O)N(C)C(=O)C2(Cl)C(C(SC)S(=O)(=O)c2ccc(C)cc2)c2ccccc21 (configuration not stated)		> 100		> 100		> 100		> 100		58.9		> 100		> 100		52.9		53.6		> 100
CC(C)N(C(=O)C12C3C4C5(C#N)C3C1(I)C5C42I)C(C)C (configuration not stated)		> 100		> 100		> 100		> 100		> 77.4		> 100		> 100		> 64.7		34.3		> 100
O=C(O)c1ccc2c(c1)Cc1cc([N+](=O)[O-])ccc1-2		> 100		> 100		> 100		> 100		> 100		> 100		> 100		> 100		> 100		> 100
O=C1CCC(Cc2ccc(Cl)cc2Cl)C(=O)N1 (configuration not stated)		> 100		> 100		> 100		> 100		> 100		> 100		> 100		> 100		> 100		> 100
Nc1ccccc1C#C/C=C\C#Cc1ccccc1C(F)(F)F	0.895	15.2	10.5	58.7	21.8	> 100	1.53	> 40			8.3	27.9	0.888	24.7	0.545	16.7	0.432	> 35.4	1.34	> 55.8
O=C1C=C[C@@]23CC1C(O)C[C@H]2C=Cc1ccccc13 (some centres not stated)				> 100		> 100		> 100		> 100				> 100		> 100		> 100		> 100
CCOc1ccc(N=Cc2cccc3cccnc23)cc1		> 100		> 100		> 100		> 100		> 100		> 100		> 100		> 100		> 100		> 100
O=c1cc(C(F)(F)F)c2cc3c(cc2o1)NCCC3		> 100		91.7		> 100		> 100		> 100		> 100				> 100		> 100		> 100
CCOP(=O)(OCC)C(NC(c1ccccc1)c1ccccc1)c1ccccc1 (configuration not stated)	13.4	28.5	48.1	> 100	22.3	52.2	17.2	41	51.8	> 100	14.7	28.2	24.3	52	14.6	29.2	13.2	26		
Cc1ccc(NC(=O)CC2C(=O)Nc3ccccc3S2=O)cc1C (configuration not stated)		> 100		> 100		> 100		> 100		34.3		> 100				68.8		> 100		> 100
CCN(Cc1cccc(OC)c1)c1ccc(CO)c(Cl)c1	19.9	71.3	24	> 100	2.81	21.3	0.272	14.1	0.291	14.3			8.52	33.6	12.4	38.5	0.0731	11.2	0.078	0.833
O=C(O)C(=Cc1ccnc2ccccc12)C(=O)O		> 100		> 100		> 100		> 100				> 100		> 100		> 100		> 100		> 100
